Where two headings read alike, the source gives them in different places. Bridge positions count the residues as written; N and C are the ends.
Key:
[1] = target: 206-216 stretch of the human α7 nAChR (Homo sapiens, UniProt P36544); conditions: inhibitors 1 uM to 10 uM
Method: A 2-5 ug quantity of the 11 amino acid peptide comprised of the 206-216 stretch of the α7 nAChR (N-Ac, C(O)NH2) are added to a 96-well microtiter plate in 50 mL 10 mM HEPES, pH 7.4, or any buffer 50 ul. ^125I-β-amyloid1-40 (2000 Ci/mmol, 50 pM) was added to the wells in the presence and absence of inhibitors (1 uM to 10 uM) dissolved in 1 uL of 30% or 100% DMSO. Unbound ligands were removed and bound radioactivity was measured using a Microbeta liquid scintillation counter.

Aβ aggregation = target: T1, Aβ aggregation (Homo sapiens, UniProt P05067); assay: Aβ aggregation assay on Synthaloid plates with labelled Aβ1-40; assay type: biochemical
T1 construct: 100 nM of fluo-Aβ1-40 in 100 μl of each well of the 96-well Synthaloid plate; purchased Amersham Pharmacia Biotech (125I-Aβ1-40); Advanced Bioconcepts (fluo-Aβ1-40)
T1 sequence (P05067 672-711 limits assumed): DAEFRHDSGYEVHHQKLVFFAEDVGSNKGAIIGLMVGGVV
Method: Aβs are known to form aggregates leading to the formation of amyloid plaques that are characteristic of Alzheimer's disease. […] We have validated this aggregation assay using both ^125I-Aβ1-40 and fluo-Aβ1-40 in a buffer containing 50 mM HEPES, pH 7.4, 0.1% BSA, 10% FCS and protease inhibitors. About 500 pM of ^125I-Aβ1-40 or 100 nM of fluo-Aβ1-40 in 100 μl of each well of the 96-well Synthaloid plate was allowed to incubate for 2.5 hr at room temperature in the presence or absence of inhibitors. At the end of the incubation, unbound protein in the wells was removed by three washes using the above buffer. The amount of bound protein which represented Aβ aggregation was measured either by scintillation counting or fluorescence measurements.

[2] = test system: acetylcholine release from guinea pig hippocampus synaptosomes; assay: K+-evoked 3H-acetylcholine release from synaptosomes, effect of Aβs; assay type: cell-based; conditions: for IC50: read-out: ACh Release (IC50)
Method: Synaptosomes from guinea pig hippocampus were incubated with 0.1 μM ^3H-choline and then subjected to repeated washes to remove unincorporated ^3H-choline. The synaptosomes were treated with 65 mM K^+ for 30 seconds to elicit 3H-acetylcholine release.

[3] = test system: Aβ1-42 mediated inhibition of ACh release in rat cortical synaptosomes; assay: Amelioration of the Aβ1-42 mediated inhibition of ACh release in rat cortical synaptosomes; assay type: cell-based
[4] = 10 μM, read-out: % Inh Agg. (conc μM)

Compound	% α7 nAChR 206-216 Binding ([1]; 125I-β-amyloid1-40 50 pM)	% Inh Agg. (conc μM) (Aβ aggregation; 10 μM)	% ACh Release at 10 μM [2]	further results
COc1ccc(OC)c2c1C[C@@H](N1CCOCC1)[C@@H](C)C2 (relative stereo) [Compound 23, 5,8-Dimethoxy-cis-2-(1-morpholinyl)-3-methyl-1,2,3,4-tetrahydronaphthalene]	54%	–	–	–
CCCN(CCC)C1Cc2c(OC(=O)C(C)(C)C)ccc(O)c2CC1C (centres unmarked) [Compound 51]	0%	30-50 (10) %	54%	–
COc1ccc(OC)c2c1C[C@H](C)[C@H](Nc1ccc(OCCN3CCCCC3)cc1)C2 (relative stereo) [Compound 60, 5,8-Dimethoxy-cis-2-[N-(4-(2-(1-piperidinyl)ethoxy)phenyl)]amino-3-methyl-1,2,3,4-tetrahydronaphthalene]	0%	–	24%	% Inh Agg. (result in words) (Aβ aggregation; concentration not given): very active
C#CCN(CCC)C1Cc2c(OP(=O)(c3ccccc3)c3ccccc3)ccc(OP(=O)(c3ccccc3)c3ccccc3)c2CC1C (centres unmarked) [Compound 57]	63%	<30 (10) %	11%	–
C#CCN(CCC)C1Cc2c(OC)ccc(OC)c2CC1C (racemic) [Compound 31, 5,8-Dimethoxy-cis and trans-2-(N-propyl-N-propargyl)amino-3-methyl-1,2,3,4-tetrahydronaphthalene]	–	34 (10) %	–	–
CCCN(CCCc1ccccc1)C1Cc2c(O)ccc(O)c2CC1C (racemic) [Compound 20]	–	–	–	% Inh Agg. (conc μM) (Aβ aggregation; 5 μM): 39 (5) %
Ac-YECC-NH2 [human alpha-7 nAChR210-213]	–	–	–	Amelioration of the Aβ1-42 Meditated Inhibition of ACh Release in Rat Cortical Synaptosomes (%) ([3]; at 1 μM): 59% at 1 μM; Amelioration of the Aβ1-42 Meditated Inhibition of ACh Release in Rat Cortical Synaptosomes (%) ([3]; at 10 μM): 72% at 10 μM
CCCN(C)C1Cc2c(OC)ccc(OC)c2CC1C (centres unmarked) [Compound 52]	–	–	0%	inhibition at 10 µM (Aβ aggregation; [4]): 60%; % α7 nAChR 206-216 Binding ([1]; […]): 0%
CCCN(CCC)C1Cc2c(O)ccc(OP(=O)(c3ccccc3)c3ccccc3)c2CC1C (centres unmarked) [Compound 58]	42%	<30 (10) %	18%	–
CCCN(CC1CCCCC1)C1Cc2c(OC)ccc(OC)c2CC1C (racemic) [Compound 21]	–	–	–	% Inh Agg. (conc μM) (Aβ aggregation; 5 μM): 20 (5) %
CCCN(CCC(C)CCC=C(C)C)C1Cc2c(O)ccc(O)c2CC1C (centres unmarked) [Compound 55]	0%	50-90 (10) %	15%	–
CCCN(CCC)C1Cc2c(OC)ccc(O)c2CC1C (stereo not drawn) [Compound 45, 5-Hydroxy-8-methoxy-trans-2-di(N-propylamino)-3-methyl-1,2,3,4-tetrahydronaphthalene]	–	–	78%	inhibition at 78 µM (Aβ aggregation; 78 μM as printed, read-out: % Inh Agg. (conc μM)): 30 to 50%
CCCN(Cc1ccccc1Cl)C1Cc2c(O)ccc(O)c2CC1C (racemic) [Compound 40]	–	75 (10) %	–	–
C#CCN(CCC)C1Cc2c(O)ccc(O)c2CC1C (racemic) [Compound 32]	–	69 (10) %	–	–
CCCN(Cc1ccc(I)cc1)C1Cc2c(O)ccc(O)c2CC1C (racemic) [Compound 36]	–	<30 (10) %	–	–
CCCN(CCC)C1Cc2c(O)ccc(OCC=C(C)C)c2CC1C (racemic) [Compound 43]	10%	50-90 (10) %	0%	–
CCCNC1Cc2c(OC)ccc(OC)c2CC1C (centres unmarked) [Compound 7, 5,8-Dimethoxy-2-N-propylamino-3-methyl-1,2,3,4-tetrahydronaphthalene]	–	–	–	inhibition at 100 µM (Aβ aggregation; 100 μM, read-out: % Inh Agg. (conc μM)): 50%
CCCN(CCC)C1Cc2c(OC)ccc(OC)c2CC1C (stereo not drawn) [Compound 8, 5,8-Dimethoxy-trans-2-di(N-propylamino)-3-methyl-1,2,3,4-tetrahydronaphthalene]	–	–	–	inhibition at 10 µM (Aβ aggregation; [4]): 50 to 90%; IC50 ([2]; Cavia porcellus): 700 nM
CCCN(CCC)C1Cc2c(OC)ccc(OC)c2CC1C (single isomer, unassigned) [Compound 17]	–	>90 (10) %	63%	IC50 [2]: 1000 nM
CCCN(C)C1Cc2c(O)ccc(O)c2CC1C (centres unmarked) [Compound 53]	–	–	18%	inhibition at 10 µM (Aβ aggregation; [4]): 50 to 90%; % α7 nAChR 206-216 Binding ([1]; […]): 0%
CCCN(CCCSC)C1Cc2c(O)ccc(O)c2CC1C (racemic) [Compound 28]	34%	50-90 (10) %	–	–
Ac-SERFYECCKEP-NH2 [human alpha-7 nAChR206-216 oxidized (cyclic) CC: Ac-SERFYECC] (disulfide 7-8 (inferred)) [206-216 peptide with oxidized (cyclic) CC]	–	–	–	Amelioration of the Aβ1-42 Meditated Inhibition of ACh Release in Rat Cortical Synaptosomes (%) ([3]; at 1 μM): 82% at 1 μM; Amelioration of the Aβ1-42 Meditated Inhibition of ACh Release in Rat Cortical Synaptosomes (%) ([3]; at 10 μM): 84% at 10 μM
CCCN(Cc1ccc(O)cc1)C1Cc2c(O)ccc(O)c2CC1C (racemic) [Compound 38]	–	<30 (10) %	–	–

Compound	% α7 nAChR 206-216 Binding ([1]; 125I-β-amyloid1-40 50 pM)	% Inh Agg. (conc μM) (Aβ aggregation; 10 μM)	% ACh Release at 10 μM [2]	further results
CCCN(Cc1ccc(C)cc1)C1Cc2c(O)ccc(O)c2CC1C (racemic) [Compound 42]	–	60 (10) %	–	–
CCCN(Cc1ccccc1)C1Cc2c(OC)ccc(OC)c2CC1C (racemic) [Compound 25]	48%	–	–	–
COC(=O)[C@H](C)NC1Cc2c(OC)ccc(OC)c2CC1C (stereo partly drawn) [Compound 48, 5,8-Dimethoxy-2-[N-(L-alanylmethyl ester)]-3-methyl-1,2,3,4-tetrahydronaphthalene]	2%	<30 (10) %	0%	–
CCCN(Cc1ccccc1Cl)C1Cc2c(OC)ccc(OC)c2CC1C (racemic) [Compound 39]	–	85 (10) %	–	–
CCCN(CCCc1ccccc1)C1Cc2c(OC)ccc(OC)c2CC1C (racemic) [Compound 19]	–	–	–	% Inh Agg. (conc μM) (Aβ aggregation; 5 μM): 30 (5) %
5,8-bis(Diphenylphosphinoyl)-3-methyl-1,2,3,4-tetrahydronaphthalene [Compound 59]	–	<30 (10) %	25%	% α7 nAChR 206-216 Binding ([1]; […]): 72%
CCCN(CCC(C)CCC=C(C)C)C1Cc2c(OC)ccc(OC)c2CC1C (centres unmarked) [Compound 54]	0%	50-90 (10) %	0%	–
C#CCN(CCC)C1Cc2c(O)ccc(O)c2CC1C (racemic) [Compound 34]	–	69 (10) %	–	–
CCCN(CCC)C1Cc2c(O)ccc(OC)c2CC1C (stereo not drawn) [Compound 46, 5-Methoxy-8-hydroxy-trans-2-di(N-propylamino)-3-methyl-1,2,3,4-tetrahydronaphthalene]	–	–	0%	inhibition at 10 µM (Aβ aggregation; [4]): 50 to 90%; % α7 nAChR 206-216 Binding ([1]; […]): 18%
CCCN(Cc1ccc(I)cc1)C1Cc2c(OC)ccc(OC)c2CC1C (racemic) [Compound 35]	–	38 (10) %	–	–
CCCN(CC1CCCCC1)C1Cc2c(O)ccc(O)c2CC1C (racemic) [Compound 22]	–	–	–	% Inh Agg. (conc μM) (Aβ aggregation; 50 μM): 38 (50) %
CCCN(Cc1ccccc1)C1Cc2c(O)ccc(O)c2CC1C (racemic) [Compound 26]	64%	<30 (10) %	–	–
CC1Cc2c(O)ccc(O)c2CC1N1CCOCC1 (stereo not drawn) [Compound 24, 5,8-Dihydroxy-cis-2-(1-morpholinyl)-3-methyl-1,2,3,4-tetrahydronaphthalene]	43%	–	–	–
CCCCOc1ccc(CN(CCC)C2Cc3c(OC)ccc(OC)c3CC2C)cc1 (racemic) [Compound 37]	–	<30 (10) %	–	–
CCCN(Cc1cccs1)C1Cc2c(O)ccc(O)c2CC1C (racemic) [Compound 30]	–	–	–	% Inh Agg. (conc μM) (Aβ aggregation; 5 μM): 38 (5) %
CCCN(CCC)C1Cc2c(OC)ccc(OC)c2CC1C (single isomer, unassigned) [Compound 18]	–	50-90 (10) %	70%	IC50 [2]: 10000 nM
CCCN(CCC)C1Cc2c(O)ccc(O)c2CC1C (centres unmarked) [Compound 15]	–	–	–	inhibition at 10 µM (Aβ aggregation; [4]): 50 to 90%; IC50 [2]: 250 nM; % α7 nAChR 206-216 Binding ([1]; […]): 85%
CCCN(Cc1ccc(C)cc1)C1Cc2c(OC)ccc(OC)c2CC1C (racemic) [Compound 41]	19%	<30(10) %	14%	–
C#CCN(CCC)C1Cc2c(O)ccc(OP(=O)(c3ccccc3)c3ccccc3)c2CC1C (centres unmarked) [Compound 56]	78%	<30 (10) %	8%	–
CCCN(Cc1cccs1)C1Cc2c(OC)ccc(OC)c2CC1C (racemic) [Compound 29]	–	12 (10) %	–	–
CCCN(CCC)C1Cc2c(OCC=C(C)C)ccc(O)c2CC1C (racemic) [Compound 44]	23%	50-90 (10) %	0%	–
CCCN(CCC)C1Cc2c(O)ccc(O)c2CC1C (centres unmarked) [Compound 16]	–	50-90 (10) %	–	IC50 [2]: 10000 nM; % α7 nAChR 206-216 Binding ([1]; […]): 44%

Reference: patent US6441049B2, “Method of treating neurodegenerative disorders via inhibition of amyloid beta peptide binding” (Ortho-McNeil Pharmaceutical, Inc., priority 1998, dated 2002)
